Data on 15 molecules can be found in patent US9868705B2, “Tetra-aryl cyclobutane inhibitors of androgen receptor action for the treatment of hormone refractory cancer” (The Board of Trustees of the University of Illinois, priority 2013, dated 2018).

For assay [1], the system named is androgen receptor. As to the kind of experiment: Whole-cell competition binding assay using 3H-R1881. The following applies: whole cells; mutant AR and WT-AR.
Assay [2] has as its target T1, AR (Homo sapiens, UniProt P10275).
T1 sequence (P10275 1-920): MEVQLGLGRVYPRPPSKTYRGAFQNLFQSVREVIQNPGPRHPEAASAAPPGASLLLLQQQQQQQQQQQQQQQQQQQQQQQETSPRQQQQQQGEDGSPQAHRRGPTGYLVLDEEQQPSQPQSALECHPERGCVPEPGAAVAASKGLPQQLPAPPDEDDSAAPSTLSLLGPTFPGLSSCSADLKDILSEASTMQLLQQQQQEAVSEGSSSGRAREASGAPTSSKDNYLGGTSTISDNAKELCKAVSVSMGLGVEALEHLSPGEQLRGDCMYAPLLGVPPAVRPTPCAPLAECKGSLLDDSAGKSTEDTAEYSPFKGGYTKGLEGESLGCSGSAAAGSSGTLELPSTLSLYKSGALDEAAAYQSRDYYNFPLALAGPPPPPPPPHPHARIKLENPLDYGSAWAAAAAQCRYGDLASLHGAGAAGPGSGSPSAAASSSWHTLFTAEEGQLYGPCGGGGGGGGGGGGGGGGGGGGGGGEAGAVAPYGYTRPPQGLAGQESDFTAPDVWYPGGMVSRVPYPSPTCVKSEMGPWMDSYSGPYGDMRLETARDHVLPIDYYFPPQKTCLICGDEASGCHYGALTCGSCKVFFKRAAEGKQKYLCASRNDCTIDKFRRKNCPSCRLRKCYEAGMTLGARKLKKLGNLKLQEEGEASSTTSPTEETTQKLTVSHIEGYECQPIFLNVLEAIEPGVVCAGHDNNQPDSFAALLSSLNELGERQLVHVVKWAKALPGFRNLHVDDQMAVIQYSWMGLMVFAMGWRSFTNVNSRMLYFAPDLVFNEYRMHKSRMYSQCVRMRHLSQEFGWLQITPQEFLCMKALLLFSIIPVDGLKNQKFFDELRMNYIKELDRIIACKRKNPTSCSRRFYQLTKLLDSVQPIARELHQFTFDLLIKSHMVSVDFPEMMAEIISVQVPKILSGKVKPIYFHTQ
Nature of the assay: AR relative binding affinity (RBA).

The subject of assay [3] is LNCaP (AR-T877A) xenograft. As to the kind of experiment: LNCaP xenograft model of prostate cancer in mice. It is filed as in vivo. Conditions: LNCaP (AR-T877A) xenograft; concentrations comparable to MDV3100. The text has this: Our goal in this example is to identify small molecules that block activity of mutant androgen receptors (ARs) but not wild type AR, by synthesizing a library of compounds, to explore possible mechanisms of action, and to evaluate therapeutic potential. A total of 75 tetra-aryl substituted cyclobutanes (CBs) were synthesized. FIG. 18 illustrates a general reaction scheme for the synthesis of some of these compounds from the photo cycloaddition of 2,4-dichloro-6-styrylpyrimidine. FIG. 19 illustrates a general reaction scheme for the synthesis from the photo cycloaddition of 2,4-disubstituted 6-styrylpyrimidines. LNCaP cell proliferation was evaluated. LNCaP cells are a cell line of human cells commonly used in the field of oncology. LNCaP cells are androgen-sensitive human prostate adenocarcinoma cells derived from the left supraclavicular lymph node metastasis from a person in 1977. They are adherent epithelial cells growing in aggregates and as single cells. […] . FIGS. 21A, B, C, and D are graphic summaries of the results for cyclobutane compound CB-7. […] Prostate cancer was the most common tumor among men in the United States in 2012, with over 240,000 diagnoses and approximately 28,000 deaths. […] . FIG. 23 illustrates the androgen receptor ligand binding domain bound to testosterone. FIG. 24 illustrates mouse survival data from a mutant androgen receptor-T877A xenograft experiment for CB-7 at various concentrations. […] . FIGS. 25A and B provide data on AR mutant selectivity for compounds CB-1 to CB-8. […] It is seen that the cyclobutanes show selectivity of mutant androgen receptor activation in the luciferase transcriptional assay in CV-1 cells (a commercially available cell line derived from the kidney of an African green monkey). FIGS. 26 and 27A and B illustrate data from a ligand competition assay for compounds CB-1, CB-6, and CB-7.
Based on the above results, we further evaluated the effects of CB 10 in vivo. […] We also utilized a traditional in vivo model of prostate cancer, the LNCaP xenograft model.

Assay [4] addresses T2, W741C AR (Homo sapiens, UniProt P10275, W742C).
T2 sequence (P10275 1-920 W742C): T1 sequence (P10275 1-920) with W742C
As to the kind of experiment: MMTV-luciferase transcription assay in CV-1 cells, W741C AR. Conditions: AR-dependent luciferase transfection assay.

In assay [5] the target is T3, T877A (LNCaP) AR (Homo sapiens, UniProt P10275, T878A).
T3 construct: expressed in transfected cells; host or cells: CV-1
T3 sequence (P10275 1-920 T878A): T1 sequence (P10275 1-920) with T878A
As to the kind of experiment: MMTV-luciferase transcription assay in CV-1 cells, T877A AR. It is filed as cell-based. Conditions: for MMTV transcription assay in CV-1 cells T877A (IC50 / inhibition): values given as powers of ten without unit, or in words; for AR antagonism, potency in words (structure-activity discussion): MMTV transcription assay in CV-1 cells, compared with 1. The text has this: (§1) These compounds were screened using an AR-responsive MMTV transcription assay in CV-1 cells, utilizing both wild type and T877A (LNCaP) AR. […]

Assay [6] has as its target T4, wild type AR (Homo sapiens, UniProt P10275).
T4 construct: expressed in transfected cells; host or cells: CV-1
T4 sequence (P10275 1-920): T1 sequence (P10275 1-920)
Nature of the assay: MMTV-luciferase transcription assay in CV-1 cells, wild type AR. Type of assay: cell-based. Conditions: wild type AR; values given as powers of ten without unit, or in words.
Excerpt: as §1

Where a chain is given by its changes, count along the chain named. Read-outs that look alike come from different tables or passages of the source.

Regarding `CC(C)CNc1cc([C@H]2[C@@H](c3ccccc3)[C@H](c3cc(NCC(C)C)nc(NCC(C)C)n3)[C@@H]2c2ccccc2)nc(NCc2cccc3ccccc23)n1` [CB-6], the “competition with 3H-R1881 for binding to AR” value (from here on “competition with 3H-R1881”) in assay [1] is given as “compete with 3H-R1881”.

Regarding `CCCNc1cc([C@H]2[C@H](c3ccccc3)[C@@H](c3cc(NCCC)nc(NCCC)n3)[C@H]2c2ccccc2)nc(NCCC)n1` [CB-1], the “competition with 3H-R1881” value in assay [1] is recorded as “compete with 3H-R1881”.

Turning to `COc1cc([C@H]2[C@@H](c3ccccc3)[C@@H](c3cc(=O)[nH]c(=O)[nH]3)[C@@H]2c2ccccc2)nc(OC)n1` [CB-46], the “AR RBA” value in assay [2] is recorded as 0.065%.

In the case of `COc1ccc(CNc2cc([C@H]3[C@H](c4ccccc4)[C@H](c4cc(NCc5ccc(OC)cc5)nc(NCc5ccc(OC)cc5)n4)[C@H]3c3ccccc3)nc(NCc3ccc(OC)cc3)n2)cc1` [CB-7], the “competition with 3H-R1881” value in assay [1] is given as “compete with 3H-R1881”. In assay [3], the survival of mice result is listed as “increases survival of mice” and the tumor size result is given as “decreases tumor size”.

Regarding `COc1cc([C@H]2[C@@H](c3ccccc3)[C@H](c3cc(=O)[nH]c(=O)[nH]3)[C@@H]2c2ccccc2)nc(OC)n1` [CB-45], the “AR RBA” value in assay [2] turned out to be 0.087%.

`COc1cc([C@H]2[C@H](c3ccccc3)[C@@H](c3cc(OC)nc(OC)n3)[C@H]2c2ccccc2)nc(OC)n1` [CB-31]: the “AR RBA” value in assay [2] is on record as 0.046%.

Take `O=c1cc([C@H]2[C@H](c3ccccc3)[C@@H](c3cc(=O)[nH]c(=O)[nH]3)[C@H]2c2ccccc2)[nH]c(=O)[nH]1` [CB-48]: the “AR RBA” value in assay [2] was found to be 0.023%.

As for `CSc1cc([C@H]2[C@H](c3ccccc3)[C@H](c3cc(SC)nc(SC)n3)[C@H]2c2ccccc2)nc(SC)n1` [CB-34], in assay [2], the “AR RBA” value was 0.002%.

Usually IC50 stands for the concentration that gives 50% inhibition. Regarding `Clc1nccc([C@H]2[C@H](c3ccccc3)[C@@H](c3ccnc(Cl)n3)[C@H]2c2ccccc2)n1` [DPM-21], the “increase in potency for W741C AR over WT receptor” value in assay [4] is reported as “approximately 10 fold”. Further, in assay [5] (AR-dependent luciferase transcription assay in CV-1 cells), the “increase in potency for T877A mutant over WT” value is recorded as “approximately 100 fold”. Further, the “IC50 lower than 1” value in assay [5] (T877A AR) was “approximately 10 fold”. Besides, the concentration for half-maximal inhibition (IC50) in assay [5] (read-out: IC50 for T877A AR) is about 0.1 µM.

In the case of `c1ccc([C@@H]2[C@H](c3ccccc3)[C@@H](c3ccccn3)[C@H]2c2ccccn2)cc1` [DPM-14], in assay [6], the “MMTV transcription assay in CV-1 cells WT (IC50 / inhibition)” value is “No inhibition No inhibition”. The “MMTV transcription assay in CV-1 cells T877A (IC50 / inhibition)” value in assay [5] (T877A AR) is listed as “No inhibition”.

Regarding `CSc1cc([C@H]2[C@H](c3ccccc3)[C@@H](c3cc(SC)nc(SC)n3)[C@H]2c2ccccc2)nc(SC)n1` [CB-35], in assay [2], the “AR RBA” value amounted to 0.027%.

Turning to `CCc1cc([C@H]2[C@H](c3ccccc3)[C@H](c3cc(CC)nc(CC)n3)[C@H]2c2ccccc2)nc(CC)n1` [CB-50], the “AR RBA” value in assay [2] worked out at 0.029%.

On to `Clc1cc([C@H]2[C@H](c3cccs3)[C@H](c3cc(Cl)nc(Cl)n3)[C@H]2c2cccs2)nc(Cl)n1` [DMP-28], for which the “MMTV transcription assay in CV-1 cells WT (IC50 / inhibition)” value in assay [6] is “Incomplete inhibition at 10^−5 Incomplete inhibition at 10^−5”. Besides, the “AR antagonism, potency in words (structure-activity discussion)” value in assay [5] is “retained parent compound potency”. For the same molecule, the IC50 in assay [5] (T877A AR, values given in μM, read-out: MMTV transcription assay in CV-1 cells T877A (IC50)) amounted to 2.6 µM.

Take `COc1cncc([C@H]2[C@H](c3ccccc3)[C@H](c3cncc(OC)n3)[C@H]2c2ccccc2)n1` [DPM-18]: in assay [6], the “MMTV transcription assay in CV-1 cells WT (IC50 / inhibition)” value is given as “No inhibition”. Besides, the “AR antagonism, potency in words (structure-activity discussion)” value in assay [5] is on record as “decreased activity”.

On to `COc1nccc([C@H]2[C@H](c3ccccc3)[C@H](c3ccnc(OC)n3)[C@H]2c2ccccc2)n1` [DPM-5], for which the “MMTV transcription assay in CV-1 cells WT (IC50 / inhibition)” value in assay [6] is listed as “No inhibition No inhibition”. Further, the “MMTV transcription assay in CV-1 cells T877A (IC50 / inhibition)” value in assay [5] (T877A AR) is reported as “No inhibition No inhibition”.
